{"source": "patent US7312219B2", "about": "“Heteroaromatic inhibitors of fructose 1,6-bisphosphatase” (Metabasis Therapeutics, Inc., priority 1998, dated 2007)", "key": {"Fasted Rats": {"test_system": "Fasted Rats", "assay": "Blood Glucose Lowering Following Intravenous Administration to Fasted Rats", "format": "in vivo, rat", "settings": "18 h fasted Sprague Dawley rats, relative to saline-treated controls", "method": "Inhibitors were disolved in water and the solution adjusted to neutrality with NaOH. Blood samples were obtained from the tail vein of conscious animals just prior to injection and after 1 hour. Blood glucose was measured using a HemoCue Inc. glucose analyzer according to the instructions of the manufacturer."}, "[1]": {"test_system": "Zucker Diabetic Fatty rats", "assay": "Blood Glucose Lowering in Zucker Diabetic Fatty Rats, Intravenous", "format": "in vivo, rat", "settings": "six hour time point", "method": "12-week old Zucker Diabetic Fatty rats (Genetics Models Inc., Indiannapolis, Ind.) maintained on Purina 5008 diet were instrumented with tail artery and tail vein catethers at 8 am on the day of the study. Food was removed for the remainder of the day. […] Blood samples were obtained from the tail artery catheter at the start of the infusions, and at hourly intervals thereafter. Glucose was measured in the samples by means of a HemoCue analyzer (HemoCue Inc., Mission Viejo, Calif.) according to the manufacturer's instructions."}, "Fasted Rat": {"test_system": "Fasted Rat", "assay": "Glucose Lowering Following Oral Administration to the Fasted Rat", "format": "in vivo", "settings": "oral gavage, 18-hour fasted rats, dose 30 mg/kg, time point 2 h, relative to saline controls", "method": "Compounds were administered by oral gavage to 18-hour fasted, Sprague Dawley rats (250–300 g, n =3/4/group). Phosphonic acids were prepared in deionized water, and the solution adjusted to neutrality with solidum hydroxide. Prodrugs were dissolved in polyethylene glycol (mw 400). […] The table below indicates the maximum glucose lowering achieved relative to control animals dosed with saline."}, "[2]": {"assay": "Analysis of Drug Levels and Liver Accumulation in Rats", "format": "in vivo, rat", "settings": "Sprague-Dawley, rat, iv; fasted rats, 10 mgs/kg i.v., one hour post injection, plasma; read-out: Plasma Conc.", "method": "The compound was dissolved in water and the solution adjusted to neutrality with NaOH. One hour post injection rats were anesthetized with halothane and a liver biopsy (approx. 1 g) was taken as well as a blood sample (2 ml) from the posterior vena cava. A heparin flushed syringe and needle were used for blood collection. The liver sample was immediately homogenized in ice-cold 10% perchloric acid (3 ml), centrifuged, and the supernatant neutralized with ⅓rd volume of 3 M KOH/3 M KHCO3. […] Plasma was prepared from the blood sample by centrifugation and extracted by addition of methanol to 60% (v/v). The methanolic extract was clarified by centrifugation and filtration and then analyzed by HPLC as described above."}, "[3]": {"test_system": "Zucker Diabetic Fatty rats", "assay": "Blood Glucose Lowering in Zucker Diabetic Fatty Rats, Oral", "format": "in vivo, rat", "method": "Zucker Diabetic Fatty rats were purchased from Genetics Models Inc. (Indiannapolis, Ind.) at 8 weeks of age and fed the recommended Purina 5008 diet. At the age of 12 weeks, 16 animals with fed blood glucose levels between 500 and 700 mg/dl were selected and divided into two groups (n=8) with statistically equivalent average blood glucose levels. […] The drug solution for this treatment was prepared at 25 mg/ml in deionized water and adjusted to neutrality by dropwise addition of 5 N NaOH. A second group of rats (n=8) was dosed orally with saline, in parallel. Blood glucose was measured in each rat just prior to drug or saline administration and 6 hours post administration. A HemoCue blood glucose analyzer (HemoCue Inc., Mission Viejo, Calif.) was used for these measurements according to the manufacturer's instructions."}, "[4]": {"test_system": "Gluconeogenesis in Zucker Diabetic Fatty Rats", "assay": "Inhibition of Gluconeogenesis by FBPase Inhibitor in Zucker Diabetic Fatty Rats (14C-bicarbonate to 14C-glucose)", "format": "in vivo, rat", "settings": "after 6-hour infusion at 3 mg/kg/h, n=3/group", "method": "Following a 6-hour infusion of 3.26 at 3 mg/kg/h or saline to Zucker Diabetic Fatty rats (n=3/group) as described in Example K, a bolus of ^14C-bicarbonate (40 μCi/100 g body weight) was administered via the tail vein catheter. 20 minutes later, a blood sample (0.6 mL) was taken via the tail artery. Blood (0.5 ml) was diluted into 6 mL deionized water and protein precipitated by addition of 1 mL zinc sulfate (0.3 N) and 1 mL barium hydroxide (0.3 N). The mixture was centrifuged (20 minutes, 1000×g) and 5 mL of the resulting supernatant was then combined with 1 g of a mixed bed ion exchange resin (1 part AG 50W-X8, 100–200 mesh, hydrogen form, and 2 parts AG 1-X8, 100–200 mesh, acetate form) to separate ^14-C-bicabonate from ^14C-glucose. The slurry was shaken at room temperature for four hours and then allowed to settle. An aliquot of the supernatant (0.5 mL) was then counted in 5 mL scintillation cocktail. The percentage inhibition of gluconeogenesis in drug-treated rats was calculated by dividing the average cpm of ^14C-glucose in samples from drug-treated animals by those from saline-injected animals."}, "db/db Mouse": {"test_system": "db/db Mouse", "assay": "Hepatic Glycogen Levels in the db/db Mouse", "format": "in vivo", "settings": "db/db mice", "method": "Db/db mice and their nondiabetic db/+ littermates were obtained at 8 weeks of age (Jackson Labs., Bar Harbor, Me.) and enrolled in the study at 11 weeks of age. […] Db/+ mice were treated with saline according to the same schedule. At 6 pm, mice were anesthetized with halothane and a small section of liver (0.5 g) was removed by the freeze-clamping technique. The liver samples were fully frozen by subsequent immersion in liquid nitrogen and then homogenized in 5 volumes of cold 0.6 N perchloric acid. Glycogen content was determined enzymatically in the homogenates by the method of Keppler and Decker (Keppler D and Decker K in Methods of Enzymatic Analysis, Bergmeyer, H U, Ed., Verlag Chemie International, Deerfield Beach, Fla., 1974)."}}, "data": [{"smiles": "CSc1sc(N)nc1-c1ccc(P(=O)(O)O)o1", "note": "[Compound 3.26, 2-Amino-5-methylthio-4-[2-(5-phosphono)furanyl]thiazole]", "values": [{"measurement": "blood glucose lowering", "setting": "Fasted Rats; 3 mg/kg intravenous", "result": 52, "unit": "%"}, {"measurement": "inhibition in vivo at 10 mg/kg", "setting": "Fasted Rats; Rattus norvegicus, iv, 10 mg/kg i.v., 1 hour", "result": 73, "unit": "%"}, {"measurement": "decrease in blood glucose relative to saline-infused controls", "setting": "[1]; 3 mg/kg/h tail vein infusion", "result": 29, "unit": "%"}, {"measurement": "decrease in blood glucose relative to saline-infused controls", "setting": "[1]; 30 mg/kg/h tail vein infusion", "result": 39, "unit": "%"}, {"measurement": "% Glucose Lowering (maximum)", "setting": "Fasted Rat", "result": 70, "unit": "%"}, {"measurement": "concentration at 1 h", "setting": "[2]", "result": "56 ± 2", "unit": "µM"}, {"measurement": "lowering of blood glucose relative to saline treated controls", "setting": "[3]; 100 mg/kg oral, 6 hours post administration, p=0.01", "result": 15.4, "unit": "%"}, {"measurement": "Blood Glucose, 7 pm", "setting": "[3]; 6 hours post 100 mg/kg oral gavage, n=8", "result": "497 ± 14", "unit": "mg/dL"}, {"measurement": "Blood Glucose, 1 pm", "setting": "[3]; just prior to administration of 100 mg/kg by oral gavage, n=8", "result": "573 ± 26", "unit": "mg/dL"}, {"measurement": "14C-Glucose production inhibited", "setting": "[4]", "result": 75, "unit": "%"}, {"measurement": "liver glycogen stores", "setting": "db/db Mouse; 100 mg/kg oral at 8 am and 2 pm, liver taken 6 pm", "result": "reduction of glycogen stores to levels that approached those of nondiabetic db/+ mice"}, {"measurement": "Liver Glycogen", "setting": "db/db Mouse; 100 mg/kg orally at 8 am and 2 pm, Evening, 6 pm", "result": "34.4 ± 7.1 (n = 3) μmol glucose/g"}]}]}
